In article PMC12396409, “Screening and hit evaluation of a microbial metabolite library against the pathogenic Plasmodium falciparum and Toxoplasma gondii parasites” (International Journal for Parasitology: Drugs and Drug …, 2025):
Like-named read-outs stand apart in the source and are kept apart here. *1 amine or outer side, *2 acyl side, *3 side chain or, on linkers, in order; H or OH if unused. Where a SMILES comes first, the peptide text is derived from it. Bridges are numbered along the chain shown (N, C = ends). Roman numbers before positions name the chains, in order. [ ]: non-standard residue; d: D form. Actinocin(9to1) = Cc1c2oc3c(C)ccc(C(=O)[*:1])c3nc-2c(C(=O)[*:2])c(N)c1=O; NMeV = CN[C@H](C(=O)O)C(C)C; Sar = CNCC(=O)O

Columns and labels:
[1] = tested on: P. falciparum 3D7 parasites; test: P. falciparum growth inhibition assay, 1-cycle (72 h treatment), SYBR DNA staining (library screen at 2 μg/mL and dose-response); type: cell-based, Plasmodium falciparum; settings: for activity at 2 µg/mL: Plasmodium falciparum, 3D7
[2] = tested on: P. falciparum 3D7 parasites; test: P. falciparum growth inhibition assay, 2-cycle (120 h treatment), delayed-death screen and dose-response; type: cell-based, Plasmodium falciparum; settings: for activity at 2 µg/mL: Plasmodium falciparum, 3D7
[3] = tested on: T. gondii RH strain (RH-Tub-eYFP) tachyzoites; test: microbe, parasite or virus in culture; type: cell-based, Toxoplasma gondii; settings: for percent parasite growth at 2 µg/mL: Toxoplasma gondii; for percent parasite growth at 2 µg/mL / Tg_72h_%Growth_Rep1 / Tg_72h_%Growth_Rep2: 72 h
[4] = active against the parasite at 2 μg/mL, no anti-tumour (NS-1) or cytotoxic (fibroblast) activity at 5 μg/mL
[5] = P. falciparum 3D7, 72 h, parasite screen at 2 μg/mL, % growth, replicate 1
[6] = P. falciparum 3D7, 72 h, parasite screen at 2 μg/mL, % growth, replicate 2
[7] = P. falciparum 3D7, 120 h, parasite screen at 2 μg/mL, % growth, replicate 1
[8] = P. falciparum 3D7, 120 h, parasite screen at 2 μg/mL, % growth, replicate 2
[9] = T. gondii, parasite screen at 2 μg/mL, % growth, replicate 1
[10] = T. gondii, parasite screen at 2 μg/mL, % growth, replicate 2
[11] = library screen at 2 μg/mL, 72 h, % growth, replicate 1
[12] = library screen at 2 μg/mL, 72 h, % growth, replicate 2
[13] = library screen at 2 μg/mL, 120 h, % growth, replicate 1
[14] = library screen at 2 μg/mL, 120 h, % growth, replicate 2
[15] = library screen at 2 μg/mL, % growth, replicate 1
[16] = library screen at 2 μg/mL, % growth, replicate 2

Question: What does the source list for `Cc1c2oc3c(C)ccc(C(=O)N[C@@H]4C(=O)N[C@H](C(C)C)C(=O)N5CCC[C@H]5C(=O)N(C)CC(=O)N(C)[C@@H](C(C)C)C(=O)O[C@@H]4C)c3nc-2c(C(=O)N[C@@H]2C(=O)N[C@H](C(C)C)C(=O)N3CCC[C@H]3C(=O)N(C)CC(=O)N(C)[C@@H](C(C)C)C(=O)O[C@@H]2C)c(N)c1=O` [Actinomycin D] (I: T[dV]P[Sar][NMeV] / II: T[dV]P[Sar][NMeV]; ester I:1-I:C, II:1-II:C; linker I:N-II:N via Actinocin(9to1))?
Answer: activity at 2 µg/mL ([1]; library screen at 2 μg/mL, 72 h, % growth, replicate 1, read-out: Pf_72h_%Growth_Rep1): 2.91%; activity at 2 µg/mL ([1]; library screen at 2 μg/mL, 72 h, % growth, replicate 2, read-out: Pf_72h_%Growth_Rep2): 5.02%; activity at 2 µg/mL ([2]; library screen at 2 μg/mL, 120 h, % growth, replicate 1, read-out: Pf_120h_%Growth_Rep1): 7.65%; activity at 2 µg/mL ([2]; library screen at 2 μg/mL, 120 h, % growth, replicate 2, read-out: Pf_120h_%Growth_Rep2): -5.71%; percent parasite growth at 2 µg/mL ([3]; library screen at 2 μg/mL, % growth, replicate 1, read-out: Tg_72h_%Growth_Rep1): 2.02%; percent parasite growth at 2 µg/mL ([3]; library screen at 2 μg/mL, % growth, replicate 2, read-out: Tg_72h_%Growth_Rep2): 0.47%

Question: Which activity at 2 µg/mL ([1]; P. falciparum, 72 h, parasite screen 2 μg/mL, % growth, replicate 1, read-out: Pf_72h_%Growth_Rep1) does the source give for `Nc1ncnc2c1ncn2[C@@H]1O[C@H](C[C@@H](N)CC[C@H](N)C(=O)O)[C@@H](O)[C@H]1O` [sinefungin, reference compound] here?
Answer: 17.1%

Question: What about the activity at 2 µg/mL ([1]; P. falciparum, 72 h, parasite screen 2 μg/mL, % growth, replicate 2, read-out: Pf_72h_%Growth_Rep2) of the same compound?
Answer: 12.1%

Question: What about the “selectivity for P. falciparum in the screens” value [1, 4] of the same compound?
Answer: also active

Question: And the activity at 2 µg/mL ([2]; P. falciparum, 120 h, parasite screen 2 μg/mL, % growth, replicate 1, read-out: Pf_120h_%Growth_Rep1)?
Answer: 13.4%

Question: And the activity at 2 µg/mL ([2]; P. falciparum, 120 h, parasite screen 2 μg/mL, % growth, replicate 2, read-out: Pf_120h_%Growth_Rep2)?
Answer: -3.05%

Question: And the percent parasite growth at 2 µg/mL ([3]; T. gondii, parasite screen 2 μg/mL, % growth, replicate 1, read-out: Tg_72h_%Growth_Rep1)?
Answer: 7.22%

Question: And the percent parasite growth at 2 µg/mL ([3]; T. gondii, parasite screen 2 μg/mL, % growth, replicate 2, read-out: Tg_72h_%Growth_Rep2)?
Answer: 12.7%

Question: And the “selectivity for T. gondii in the screens” value [3, 4]?
Answer: also active

Question: With `CCC1(C2OC(C3OC(O)(CO)C(C)CC3C)CC2C)CCC(C2(C)CCC3(CC(O)C(C)C(C(C)C(OC)C(C)C(=O)O)O3)O2)O1` (centres unmarked) [BIA-M1303] as the compound, how does the Pf_72h_%Growth_Rep1 [1, 5] read?
Answer: 1.29%

Question: What about the Pf_72h_%Growth_Rep2 [1, 6] of the same compound?
Answer: -3.52%

Question: And the Pf_120h_%Growth_Rep1 [2, 7]?
Answer: 3.05%

Question: What about the Pf_120h_%Growth_Rep2 [2, 8] of the same compound?
Answer: 14.66%

Question: What about the Tg_72h_%Growth_Rep1 [3, 9] of the same compound?
Answer: 1.84%

Question: And the Tg_72h_%Growth_Rep2 [3, 10]?
Answer: 2.05%

Question: Which results are given for `COc1ccc2c(c1OC)C[N+]1(C)CCc3cc4c(cc3C1C2)OCO4.[I-]` (centres unmarked) [BIA-M1962]?
Answer: Pf_72h_%Growth_Rep1 [1, 5]: 14.79%; Pf_72h_%Growth_Rep2 [1, 6]: 27.45%; Pf_120h_%Growth_Rep1 [2, 7]: 5.27%; Pf_120h_%Growth_Rep2 [2, 8]: 17.95%; Tg_72h_%Growth_Rep1 [3, 9]: 93.48%; Tg_72h_%Growth_Rep2 [3, 10]: 106.99%

Question: Which Pf_72h_%Growth_Rep1 [1, 11] does the source give for `CC[C@H](C)[C@H]1O[C@]2(C=C[C@@H]1C)C[C@@H]1C[C@@H](C/C=C(\C)[C@@H](O[C@H]3C[C@H](OC)[C@@H](O[C@H]4C[C@H](OC)[C@H](O)[C@H](C)O4)[C@H](C)O3)[C@@H](C)C=C/C=C3\CO[C@@H]4[C@H](O)C(C)C=C(C(=O)O1)[C@]34O)O2` (some centres unmarked) [Avermectin B1a, delta2-] here?
Answer: 4.74%

Question: What about the Pf_72h_%Growth_Rep2 [1, 12] of the same compound?
Answer: 5.45%

Question: And the Pf_120h_%Growth_Rep1 [2, 13]?
Answer: 4.88%

Question: What about the Pf_120h_%Growth_Rep2 [2, 14] of the same compound?
Answer: -9.99%

Question: What about the Tg_72h_%Growth_Rep1 [3, 15] of the same compound?
Answer: 29.57%

Question: And the Tg_72h_%Growth_Rep2 [3, 16]?
Answer: 35.45%

Question: Which results are given for `CC(C)[C@@H]1NC(=O)[C@H](Cc2ccccc2)NC1=O` [Cyclo(L-Phe-L-Val)]?
Answer: Pf_72h_%Growth_Rep1 ([1]; P. falciparum, 72 h, screen at 2 μg/mL, replicate 1): 85.66%; Pf_72h_%Growth_Rep2 ([1]; P. falciparum, 72 h, screen at 2 μg/mL, replicate 2): 90.47%; Pf_120h_%Growth_Rep1 ([2]; P. falciparum, 120 h, screen at 2 μg/mL, replicate 1): 67.70%; Pf_120h_%Growth_Rep2 ([2]; P. falciparum, 120 h, screen at 2 μg/mL, replicate 2): 97.99%; Tg_72h_%Growth_Rep1 ([3]; T. gondii, screen at 2 μg/mL, replicate 1): 132.95%; Tg_72h_%Growth_Rep2 ([3]; T. gondii, screen at 2 μg/mL, replicate 2): 103.43%

Question: `C/C=C(/C)c1cc(O)c(C)c2c1Oc1c(C)c(O)cc(/C(C)=C\C)c1C(=O)O2` [Folipastatin] was tested. Which Pf_72h_%Growth_Rep1 [1, 11] did it give?
Answer: 84.22%

Question: What about the Pf_72h_%Growth_Rep2 [1, 12] of the same compound?
Answer: 87.89%

Question: And the Pf_120h_%Growth_Rep1 [2, 13]?
Answer: 81.33%

Question: And the Pf_120h_%Growth_Rep2 [2, 14]?
Answer: 105.49%

Question: And the Tg_72h_%Growth_Rep1 [3, 15]?
Answer: 114.14%

Question: And the Tg_72h_%Growth_Rep2 [3, 16]?
Answer: 93.99%

Question: What does the source list for `CCCCCCCCCCCCCCCC(=O)NC1CCOC1=O` (centres unmarked) [BIA-H1500]?
Answer: Pf_72h_%Growth_Rep1 ([1]; P. falciparum 3D7, 72 h, library screen at 2 μg/mL, % growth, replicate 1): 91.73%; Pf_72h_%Growth_Rep2 ([1]; P. falciparum 3D7, 72 h, library screen at 2 μg/mL, % growth, replicate 2): 78.97%; Pf_120h_%Growth_Rep1 ([2]; P. falciparum 3D7, 120 h, library screen at 2 μg/mL, % growth, replicate 1): 95.21%; Pf_120h_%Growth_Rep2 ([2]; P. falciparum 3D7, 120 h, library screen at 2 μg/mL, % growth, replicate 2): 120.58%; Tg_72h_%Growth_Rep1 ([3]; T. gondii RH, library screen at 2 μg/mL, % growth, replicate 1): 108.53%; Tg_72h_%Growth_Rep2 ([3]; T. gondii RH, library screen at 2 μg/mL, % growth, replicate 2): 91.16%
